Test results from the supplement of paper PMC10307832.

Tests used:
Experiment in all cases: relative viability (nuclei count vs DMSO), 5 days (fraction); higher = more cells survive
[1] = compound: CC1=CC(=NN1)NC2=CC(=NC(=N2)/C=C/C3=CC=CC=C3)N4CCN(CC4)C
In short: (§1)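 Acceptance criteria were a control CV below 25% and at least one doubling per plate. Lung cancer cell lines in 1536-well plates got five library-drug doses (not always all listed) √10 apart by pinning and were left 5 days with no medium change. Viability divides treated-well nuclei by vehicle-well nuclei and is the median across plates. Nuclei were counted by MetaXpress from 4× Hoechst images.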

Obatoclax = compound: COC1=CC(c2cc3ccccc3[nH]2)=N/C1=C\c1[nH]c(C)cc1C [Obatoclax]
In short: as §1

Bortezomib = compound: CC(C)C[C@H](NC(=O)[C@H](Cc1ccccc1)NC(=O)c1cnccn1)B(O)O [Bortezomib]
In short: as §1

Row | Cell Line | relative viability ([1]; 0.08 µM) | relative viability ([1]; 0.253 µM) | relative viability ([1]; 0.8 µM) | relative viability ([1]; 2.53 µM) | relative viability ([1]; 8 µM) | relative viability (Obatoclax; 0.01 µM) | relative viability (Obatoclax; 0.03162 µM) | relative viability (Obatoclax; 0.1 µM) | relative viability (Obatoclax; 0.3162 µM) | relative viability (Obatoclax; 1 µM) | relative viability (Bortezomib; 0.0002 µM) | relative viability (Bortezomib; 0.000632 µM) | relative viability (Bortezomib; 0.002 µM) | relative viability (Bortezomib; 0.002 µM, anchor plate) | relative viability (Bortezomib; 0.006325 µM) | relative viability (Bortezomib; 0.02 µM)
1 | 201T | 1.02 | 1.06 | 0.928 | 0.892 | 0.354 | 0.965 | 0.909 | 0.95 | 1.02 | 1.05 | 0.98 | 0.953 | 0.959 | 1.09 | 0.854 | 0.351
2 | A549 | 0.909 | 1.04 | 0.92 | 0.29 | 0.0371 | 0.987 | 0.942 | 0.92 | 0.922 | 0.575 | 0.914 | 0.981 | 0.939 | – | 0.0802 | 0.0522
3 | A-427 | 1.05 | 0.908 | 0.942 | 0.286 | 0.172 | 0.968 | 0.972 | 0.86 | 0.954 | 0.719 | 0.841 | 0.905 | 1.05 | 0.998 | 0.233 | 0.169
4 | ABC-1 | 0.835 | 0.888 | 1.16 | 0.341 | 0.227 | 1.05 | 0.971 | 0.753 | 0.828 | 0.448 | 0.779 | 0.566 | 0.271 | 0.321 | 0.216 | 0.242
5 | BEN | 0.921 | 0.974 | 0.998 | 0.618 | 0.224 | 1.02 | 0.821 | 0.727 | 0.922 | 0.953 | 0.91 | 0.991 | 0.954 | 0.843 | 0.704 | 0.274
6 | CAL-12T | 0.977 | 0.946 | 0.928 | 0.339 | 0.187 | 0.995 | 0.955 | 1 | 0.483 | 0.328 | 0.93 | 0.971 | 0.957 | 1.03 | 0.49 | 0.155
7 | COR-L23 | 1.03 | 1.1 | 0.976 | 0.237 | 0.116 | 1.01 | 1.07 | 0.945 | 0.375 | 0.27 | 0.97 | 0.948 | 0.964 | 0.971 | 0.0694 | 0.071
8 | COR-L 105 | 0.848 | 1 | 0.891 | 0.301 | 0.27 | 0.884 | 1.08 | 0.992 | 0.69 | 0.436 | 0.855 | 0.936 | 0.797 | 0.931 | 0.292 | 0.314
9 | Calu-6 | 0.967 | 0.991 | 0.889 | 0.236 | 0.141 | 1 | 0.994 | 0.963 | 0.943 | 0.488 | 0.998 | 0.965 | 0.974 | 0.961 | 0.118 | 0.0868
10 | ChaGo-K-1 | 0.953 | 1.01 | 0.976 | 0.647 | 0.289 | 0.997 | 0.829 | 1.01 | 0.931 | 1.06 | 0.993 | 0.814 | 1.01 | 1.08 | 0.594 | 0.213
11 | EBC-1 | 0.945 | 0.966 | 0.953 | 0.475 | 0.178 | 0.923 | 0.958 | 0.924 | 0.87 | 0.338 | 0.993 | 1 | 0.417 | 0.576 | 0.0892 | 0.0983
12 | EKVX | 0.9 | 1.05 | 1.09 | 0.844 | 0.267 | 1.07 | 0.891 | 0.905 | 0.982 | 0.918 | 0.934 | 0.96 | 0.987 | 1.04 | 0.669 | 0.124
13 | EMC-BAC-2 | 0.939 | 1.03 | 0.886 | 0.477 | 0.246 | 0.973 | 0.957 | 0.74 | 0.96 | 0.819 | 0.938 | 0.961 | 0.999 | 1.11 | 0.543 | 0.2
14 | EPLC-272H | 0.819 | 1.09 | 0.908 | 0.404 | 0.35 | 0.99 | 0.924 | 0.96 | 0.675 | 0.339 | 0.8 | 0.652 | 0.871 | 0.902 | 0.66 | 0.105
15 | H3255 | 0.966 | 1.05 | 1.04 | 0.931 | 0.473 | 0.931 | 0.926 | 0.896 | 1 | 0.959 | 0.928 | 1.06 | 0.951 | 0.816 | 0.274 | 0.291
16 | HARA | 0.908 | 0.951 | 1.25 | 0.339 | 0.217 | 0.947 | 0.956 | 1.01 | 0.908 | 0.827 | 0.937 | 0.888 | 0.902 | 1.11 | 0.374 | 0.0946
17 | HCC-15 | 1.01 | 1 | 1.01 | 0.524 | 0.1 | 0.975 | 0.948 | 0.842 | 1.05 | 0.816 | 0.909 | 1.07 | 0.996 | 1.01 | 0.549 | 0.0945
18 | HCC-44 | 0.986 | 1.01 | 0.933 | 0.86 | 0.18 | 1.01 | 0.953 | 0.827 | 0.929 | 0.755 | 0.95 | 0.968 | 0.987 | 0.895 | 0.869 | 0.173
19 | HCC-78 | 0.904 | 1.14 | 1.08 | 0.701 | 0.27 | 1.09 | 0.866 | 0.891 | 0.771 | 1.02 | 0.874 | 0.901 | 0.815 | 0.52 | 0.512 | 0.329
20 | HCC-366 | 0.954 | 1.03 | 0.985 | 0.452 | 0.0338 | 1 | 1.05 | 1.02 | 1.01 | 0.744 | 1.03 | 0.974 | 1.05 | 1.02 | 1.01 | 0.045
21 | HCC-827 | 1.02 | 1.06 | 1.06 | 0.89 | 0.443 | 0.97 | 0.957 | 0.946 | 1.05 | 0.979 | 1.06 | 1.04 | 1.05 | 1.05 | 0.738 | 0.165
